In publication PMC12186697, “HypoxyStat, a small-molecule form of hypoxia therapy that increases oxygen-hemoglobin affinity” (Cell, 2025):

Experiments:
[1] = test system: hypoxia transcriptional response (HIF); assay: Hypoxia biomarkers in mice (plasma Epo, hematocrit, blood glucose, hypoxia-induced brain transcripts); assay type: in vivo, mouse
Procedure: Plasma Epo measurements were performed with R&D Systems Epo Elisa Kit (MEP00B) according to manufacturer directions. Briefly, whole blood was collected with anticoagulant before centrifugation within 30 minutes of collection and stored at −80C until day of analysis. On the day of Epo assay, samples were thawed and diluted 2-fold and incubated in the assay plate for two hours. Each well was washed five times before the addition of Epo Conjugate followed by a two-hour incubation. Each well was washed five times before adding Substrate Solution to develop for 30 minutes before addition of Stop Solution. The optical density of each well was determined at 450nm and correction wavelength of 540/570.
Hematocrit was determined with an iStat VetScan 1 with Zoetis Chem 8+ cartridges. Blood glucose measurements were performed using OneTouch UltraPlus glucometer. Whole blood chemistry measurements were performed on a VetScan HM5.
Half of the hindbrain was collected at necropsy and immediately flash frozen. For RNA extraction, a stainless-steel bead (Qiagen) and 1 mL TRIzol™ Reagent (Thermo Fisher Scientific) were added to the frozen samples, which were rapidly lysed using a tissue lyser (Qiagen) for five 1-minute cycles of 30 Hz frequency. Subsequent steps for RNA isolation were identical as previously described.[9] Reverse transcription was performed using the QuantiTect Reverse Transcription Kit (Qiagen) instructions. Briefly, gDNA was wiped out from samples containing 1 μg RNA. gDNA-free RNA samples were reverse transcribed following Qiagen’s instructions. […] For each set of triplicates, an average CT value was obtained, and the difference in average CT between the target gene and β-actin was calculated (ΔCT). Next, the difference in ΔCT value between each sample and the average of the normoxia samples was calculated (ΔΔCT). Relative expression of each gene was determined by calculating 2^−ΔΔCT.

Hb = Hb occupancy estimate from blood levels of compound and Hb; assay type: in vivo; details: day 12, C57BL/6 mice
Procedure: We conducted a PK/PD study to determine the optimal dosing strategy for HypoxyStat in a chronic setting. First we administered a single 10 mg/kg oral dose of HypoxyStat to adult C57BL/6 mice and monitored its concentration in blood and plasma over a 10-day period (Figure 3A, left). Next, we administered HypoxyStat at doses of 20, 60, 200, and 600 mg/kg via oral gavage three times per week for 12 days. […] Based on blood levels of HypoxyStat and Hb measured on day 12, we estimated Hb occupancy to be 29.3% at 200 mg/kg and 41.4% at 600 mg/kg (Figure S1).[27]
Figure S1. Hemoglobin occupancy estimates, related to Figure 1
LC/MS/MS measurement of steady-state whole-blood HypoxyStat concentrations after day 12 administration in C57BL/6 mice (200 or 600 mg/kg PO, […]
week in 0.5% HPMC), N = 10 per group.
(A) Oral administration of HypoxyStat every other day (vehicle = 0.5% HPMC).
(B) LC/MS/MS measurement of steady-state mean whole-blood HypoxyStat concentrations after day 12 administration in C57BL/6 mice.
(C) Hb concentration after analogous treatment.
(D) Hb occupancy was calculated by dividing the HypoxyStat concentration in blood by the Hb concentration in blood on day 12.

O=Cc1ccccc1C(=O)N1CCCC[C@H]1COc1cccc(O)c1C=O [HypoxyStat]
circulating Epo and 5 hypoxia-induced transcripts in hindbrain ([1]; 400 mg/kg daily, 48 h, compared with inhaled hypoxia (11% O2)): induced to an equivalent or greater degree | Epo and hematocrit with increasing dose ([1]; oral gavage 3 times per week for 12 days, up to 600 mg/kg): substantial increases in both Epo and hematocrit | Hb occupancy (Hb; 200 mg/kg PO 3 times per week): 29.3% | Hb occupancy (Hb; 600 mg/kg PO 3 times per week): 41.4%
